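How tested: cells in 96-well plates exposed to compound for 48 hours at five concentrations. TGI: concentration producing complete growth inhibition.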 *1 amine or outer side, *2 acyl side, *3 side chain or, on linkers, in order; H or OH if unused. Where a SMILES comes first, the peptide text is derived from it. Bridges are numbered along the chain shown (N, C = ends). [ ]: non-standard residue; d: D form. ξ: configuration not given here. X35 = CC[C@H](C)[C@@H](N[*:1])[C@@H](O)CC(=O)O[C@H](C(=O)[C@H](C)C(=O)[*:2])C(C)C; NMeY = CN[C@@H](Cc1ccc(O)cc1)C(=O)O; dNMeL = CN[C@H](CC(C)C)C(=O)O; ξΔPro = O=C(O)C1C=CCN1
Key:
Assay in all cases: inhibition of tumour cell growth, NCI panel, 48 h
A498 renal = system: A498 renal
RXF 393 renal = system: RXF 393 renal
MCF7 breast = system: MCF7 breast
SK-MEL-2 melanoma = system: SK-MEL-2 melanoma
MDA-N = system: MDA-N
SN12C renal = system: SN12C renal
K-562 leukemia = system: K-562 leukemia
COLO 205 colon = system: COLO 205 colon
NCI-H460 lung = system: NCI-H460 lung
U251 CNS = system: U251 CNS
KM12 colon = system: KM12 colon
HOP-62 NSCLC = system: HOP-62 NSCLC
SF-268 CNS = system: SF-268 CNS
HT29 colon = system: HT29 colon
OVCAR-8 ovarian = system: OVCAR-8 ovarian
MOLT-4 leukemia = system: MOLT-4 leukemia
OVCAR-4 ovarian = system: OVCAR-4 ovarian
HCT-15 colon = system: HCT-15 colon
UACC-62 melanoma = system: UACC-62 melanoma
IGROV1 ovarian = system: IGROV1 ovarian
HCT-116 colon = system: HCT-116 colon
SF-295 CNS = system: SF-295 CNS
OVCAR-5 ovarian = system: OVCAR-5 ovarian
HOP-92 NSCLC = system: HOP-92 NSCLC
SK-MEL-5 melanoma = system: SK-MEL-5 melanoma
SNB-19 CNS = system: SNB-19 CNS
HL-60(TB) leukemia = system: HL-60(TB) leukemia
SNB-75 CNS = system: SNB-75 CNS
SR leukemia = system: SR leukemia
NCI/ADR-RES ovarian = system: NCI/ADR-RES ovarian
SW-620 colon = system: SW-620 colon
ACHN renal = system: ACHN renal
HS 578T breast = system: HS 578T breast
NCI-H522 lung = system: NCI-H522 lung
NCI-H23 lung = system: NCI-H23 lung
UO-31 renal = system: UO-31 renal
MDA-MB-231 breast = system: MDA-MB-231 breast
T-47D breast = system: T-47D breast
UACC-257 melanoma = system: UACC-257 melanoma
PC-3 prostate = system: PC-3 prostate
HCC-2998 colon = system: HCC-2998 colon
SK-OV-3 ovarian = system: SK-OV-3 ovarian
TK-10 renal = system: TK-10 renal
EKVX NSCLC = system: EKVX NSCLC
MDA-MB-435 = system: MDA-MB-435
CAKI-1 renal = system: CAKI-1 renal
LOX IMVI melanoma = system: LOX IMVI melanoma
MALME-3M melanoma = system: MALME-3M melanoma
CCRF-CEM leukemia = system: CCRF-CEM leukemia
A549 NSCLC = system: A549 NSCLC
BT-549 breast = system: BT-549 breast
DU-145 prostate = system: DU-145 prostate
M14 melanoma = system: M14 melanoma
786-0 renal = system: 786-0 renal
NCI-H226 lung = system: NCI-H226 lung
SK-MEL-28 melanoma = system: SK-MEL-28 melanoma
SF-539 CNS = system: SF-539 CNS
RPMI-8226 leukemia = system: RPMI-8226 leukemia
OVCAR-3 ovarian = system: OVCAR-3 ovarian

With `CC[C@H](C)[C@H]1NC(=O)[C@@H](NC(=O)[C@@H](CC(C)C)N(C)C(=O)C2C=CCN2)[C@@H](C)OC(=O)[C@H](Cc2ccc(OC)cc2)N(C)C(=O)[C@@H]2CCCN2C(=O)[C@H](CC(C)C)NC(=O)[C@@H](C)C(=O)[C@H](C(C)C)OC(=O)C[C@@H]1O` (some centres undefined) (H-[ξΔPro][dNMeL]T[X35]LP[NMeY](Me); ester 3-C) the TGI (A498 renal) was 13.9 nM, the TGI (RXF 393 renal) was 28.5 nM and the TGI (MCF7 breast) was 423 nM. For the same compound, the TGI (SK-MEL-2 melanoma) was 11.5 nM, the TGI (MDA-N) was 81 nM and the TGI (SN12C renal) was greater than 50000 nM. It also gave a TGI (K-562 leukemia) greater than 50000 nM, a TGI (COLO 205 colon) of 9320 nM and a TGI (NCI-H460 lung) of 114 nM. It also gave a TGI (U251 CNS) of 738 nM, a TGI (KM12 colon) of 447 nM and a TGI (HOP-62 NSCLC) of 36.3 nM. The TGI (SF-268 CNS) was 8.02 nM, the TGI (HT29 colon) was less than 5 nM and the TGI (OVCAR-8 ovarian) was 11.8 nM. The TGI (MOLT-4 leukemia) was greater than 50000 nM, the TGI (OVCAR-4 ovarian) was less than 5 nM and the TGI (HCT-15 colon) was 1780 nM. It also gave a TGI (UACC-62 melanoma) of 6.02 nM, a TGI (IGROV1 ovarian) of 115 nM and a TGI (HCT-116 colon) of 5410 nM. For the same compound, the TGI (SF-295 CNS) was 55 nM, the TGI (OVCAR-5 ovarian) was greater than 50000 nM and the TGI (HOP-92 NSCLC) was 171 nM. It also gave a TGI (SK-MEL-5 melanoma) of 75.6 nM, a TGI (SNB-19 CNS) of 7.06 nM and a TGI (HL-60(TB) leukemia) greater than 50000 nM. For the same compound, the TGI (SNB-75 CNS) was 10.7 nM, the TGI (SR leukemia) was 2540 nM and the TGI (NCI/ADR-RES ovarian) was 520 nM. The TGI (SW-620 colon) was greater than 50000 nM, the TGI (ACHN renal) was 61 nM and the TGI (HS 578T breast) was less than 5 nM. It also gave a TGI (NCI-H522 lung) of less than 5 nM, a TGI (NCI-H23 lung) of 19.8 nM and a TGI (UO-31 renal) of 303 nM. For the same compound, the TGI (MDA-MB-231 breast) was less than 46.4 nM, the TGI (T-47D breast) was 136 nM and the TGI (UACC-257 melanoma) was 239 nM. For the same compound, the TGI (PC-3 prostate) was 1060 nM, the TGI (HCC-2998 colon) was 48.8 nM and the TGI (SK-OV-3 ovarian) was 183 nM. It also gave a TGI (TK-10 renal) of 51.6 nM, a TGI (EKVX NSCLC) of 168 nM and a TGI (MDA-MB-435) of 68.7 nM. The TGI (CAKI-1 renal) was 378 nM, the TGI (LOX IMVI melanoma) was 16.1 nM and the TGI (MALME-3M melanoma) was 14.6 nM. It also gave a TGI (CCRF-CEM leukemia) greater than 50000 nM, a TGI (A549 NSCLC) greater than 50000 nM and a TGI (BT-549 breast) of 345 nM. It also gave a TGI (DU-145 prostate) of 251 nM, a TGI (M14 melanoma) of 111 nM and a TGI (786-0 renal) of 59.7 nM. For the same compound, the TGI (NCI-H226 lung) was less than 5 nM and the TGI (SK-MEL-28 melanoma) was less than 5 nM.

`C/C(=N/NC(=S)N1CCN(C(=S)N/N=C(/C)c2ccccn2)CC1)c1ccccn1` showed a TGI (A498 renal) greater than 58600 nM, a TGI (RXF 393 renal) of 41400 nM and a TGI (MCF7 breast) greater than 100000 nM. The TGI (SK-MEL-2 melanoma) was greater than 100000 nM, the TGI (MDA-N) was greater than 100000 nM and the TGI (SN12C renal) was greater than 100000 nM. For the same compound, the TGI (K-562 leukemia) was greater than 100000 nM, the TGI (COLO 205 colon) was greater than 100000 nM and the TGI (NCI-H460 lung) was greater than 100000 nM. It also gave a TGI (U251 CNS) greater than 100000 nM, a TGI (KM12 colon) greater than 100000 nM and a TGI (HOP-62 NSCLC) greater than 67900 nM. It also gave a TGI (SF-268 CNS) of 57000 nM, a TGI (HT29 colon) greater than 100000 nM and a TGI (OVCAR-8 ovarian) greater than 100000 nM. The TGI (MOLT-4 leukemia) was greater than 100000 nM, the TGI (OVCAR-4 ovarian) was greater than 100000 nM and the TGI (HCT-15 colon) was greater than 100000 nM. For the same compound, the TGI (UACC-62 melanoma) was greater than 100000 nM, the TGI (IGROV1 ovarian) was greater than 100000 nM and the TGI (HCT-116 colon) was greater than 100000 nM. It also gave a TGI (SF-295 CNS) greater than 100000 nM, a TGI (OVCAR-5 ovarian) greater than 100000 nM and a TGI (HOP-92 NSCLC) greater than 100000 nM. The TGI (SF-539 CNS) was greater than 100000 nM, the TGI (SK-MEL-5 melanoma) was greater than 80700 nM and the TGI (SNB-19 CNS) was greater than 100000 nM. It also gave a TGI (HL-60(TB) leukemia) of 1980 nM, a TGI (SNB-75 CNS) greater than 77600 nM and a TGI (NCI/ADR-RES ovarian) greater than 45800 nM. For the same compound, the TGI (SW-620 colon) was greater than 100000 nM, the TGI (ACHN renal) was greater than 44100 nM and the TGI (HS 578T breast) was greater than 83800 nM. It also gave a TGI (NCI-H522 lung) of 99200 nM, a TGI (NCI-H23 lung) greater than 81900 nM and a TGI (UO-31 renal) greater than 76700 nM. It also gave a TGI (MDA-MB-231 breast) greater than 100000 nM, a TGI (T-47D breast) of 42500 nM and a TGI (UACC-257 melanoma) greater than 100000 nM. The TGI (PC-3 prostate) was greater than 100000 nM, the TGI (HCC-2998 colon) was greater than 100000 nM and the TGI (SK-OV-3 ovarian) was greater than 100000 nM. It also gave a TGI (TK-10 renal) greater than 100000 nM, a TGI (EKVX NSCLC) greater than 100000 nM and a TGI (MDA-MB-435) greater than 100000 nM. For the same compound, the TGI (CAKI-1 renal) was greater than 100000 nM, the TGI (RPMI-8226 leukemia) was greater than 100000 nM and the TGI (LOX IMVI melanoma) was greater than 100000 nM. For the same compound, the TGI (MALME-3M melanoma) was greater than 100000 nM, the TGI (CCRF-CEM leukemia) was greater than 100000 nM and the TGI (A549 NSCLC) was greater than 100000 nM. The TGI (BT-549 breast) was greater than 100000 nM, the TGI (DU-145 prostate) was greater than 95500 nM and the TGI (M14 melanoma) was 38500 nM. The TGI (786-0 renal) was greater than 100000 nM, the TGI (NCI-H226 lung) was greater than 74500 nM and the TGI (SK-MEL-28 melanoma) was greater than 100000 nM. It also gave a TGI (OVCAR-3 ovarian) greater than 100000 nM.

Reference: PubChem BioAssay (NCI)
